The record followed here is patent publication US12029818B2 (CRITITECH, INC., priority 2020, dated 2024).

The nature of series [1]: PXRD solid form and 14 day room temperature stability study.
The nature of series [2]: Shake-flask solubility in organic solvent/water mixtures. Particulars: methanol and ethanol in water. Format: physicochemical. How it is done: The drug was added in excess to each solution prepared in duplicate.
A short description of series [3]: Specific surface area by BET sorptometry.
Procedure: SSA determination analyses were conducted on a Porous Materials, Inc., Automated BET Sorptometer BET-202A according to manufacturer's instructions.
Series [4] can be described thus: Particle size distribution (PSD) by laser diffraction, Malvern Mastersizer 3000. Format: physicochemical. How it is done: PSD analyses were conducted on a Malvern Mastersizer™ 3000 using the Aero S™ dispersion unit according to manufacturer's instructions.

On to `CS(=O)(=O)CCNCc1ccc(-c2ccc3ncnc(Nc4ccc(OCc5cccc(F)c5)c(Cl)c4)c3c2)o1` [Lapatinib, N-(3-chloro-4-{[(3-fluorophenyl)methyl]oxy}phenyl)-6-[5-({[2-(methylsulfonyl)ethyl]amino}methyl)-2-furanyl]-4-quinazolinamine], for which the “Crystalline/amorphous form by PXRD” value in series [1] is recorded as “crystalline”. Further, the “Solubility dependence on organic solvent concentration” value in series [2] is “concentration dependent solubility”. In addition, the SSA in series [3] (listed as Lapatinib Raw) came to 2.33 m^2/g. Also, in series [3] (listed as unprocessed material), the SSA came out at 1.60 m^2/g. Besides, in series [4], the “PSD: Volume Dv-10” value stood at 0.839 μm, the “PSD: Volume Dv-50” value is recorded as 6.59 μm and the “PSD: Volume Dv-90” value was found to be 335 μm.
